Measured values: PubChem BioAssay (NCI)
Where “and” joins values, the source holds several entries; their conditions need not be identical. Equal values may be shown once.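 Following 48 hours of exposure in 96-well plates, responses at five concentrations were used to interpolate endpoints linearly. Here, GI50 denotes the concentration required for 50% inhibition of growth. TGI: total growth inhibition.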

What was measured:
Assay in all cases: NCI tumour cell line growth inhibition, 48 h
786-0 renal = system: 786-0 renal
IGROV1 ovarian = system: IGROV1 ovarian
MALME-3M melanoma = system: MALME-3M melanoma
NCI-H226 lung = system: NCI-H226 lung
NCI/ADR-RES ovarian = system: NCI/ADR-RES ovarian
OVCAR-3 ovarian = system: OVCAR-3 ovarian
RPMI-8226 leukemia = system: RPMI-8226 leukemia
SK-OV-3 ovarian = system: SK-OV-3 ovarian
SN12C renal = system: SN12C renal
SW-620 colon = system: SW-620 colon

Compound | TGI (786-0 renal) [µM] | GI50 (IGROV1 ovarian) [µM] | GI50 (MALME-3M melanoma) [µM] | TGI (MALME-3M melanoma) [µM] | GI50 (NCI-H226 lung) [µM] | GI50 (NCI/ADR-RES ovarian) [µM] | GI50 (OVCAR-3 ovarian) [µM] | TGI (OVCAR-3 ovarian) [µM] | GI50 (RPMI-8226 leukemia) [µM] | GI50 (SK-OV-3 ovarian) [µM] | TGI (SK-OV-3 ovarian) | GI50 (SN12C renal) [µM] | TGI (SN12C renal) [µM] | GI50 (SW-620 colon) [µM] | TGI (SW-620 colon) [µM] | TGI (IGROV1 ovarian) [µM] | TGI (NCI-H226 lung) [µM] | TGI (NCI/ADR-RES ovarian) [µM] | TGI (RPMI-8226 leukemia) [µM]
CN(C)/N=N/c1nc[nH]c1C(N)=O | > 1000 | 129 | 243 | > 1000 | 140 | 232 | 101 | > 1000 | 6.81 | 14.2 | 88.7 µM and 328 µM | 60.6 | > 1000 | 32.9 | > 1000 |  |  |  | 
COc1ccc(Nc2nc(N)c(C(=O)c3cccs3)s2)cc1 | > 56.6 |  |  | 64.8 |  |  |  | > 32.4 |  |  | > 100 µM |  | > 75.6 |  | > 100 | 41.5 | 19.2 | > 100 | 21.7
CCOC(=O)N1CCC(=C2c3ccc(Cl)cc3CCc3cccnc32)CC1 | 33.4 |  |  | 24.7 |  |  |  | 22.5 |  |  | 29.1 µM |  | 24.4 |  | 34.6 | 8.22 | 40.6 | 23.6 | 32.9
CC(C)(C)[Si](C)(C)OCC1OC(n2cnc3c(=O)[nH]c(N)nc32)C(O[Si](C)(C)C(C)(C)C)C1O[Si](C)(C)C(C)(C)C (stereo not given) | 4.88 |  |  | 4.02 |  |  |  | 3.56 |  |  | 4.45 µM |  | 5.02 |  | > 20.4 | 3.91 | 6.79 | > 100 | 3.46
Cc1sc2nc3n(c(=O)c2c1C)N=CN(c1ccc(F)cc1)C3 | 38.3 |  |  | 57.2 |  |  |  | > 100 |  |  | > 100 µM |  | > 100 |  | > 100 | > 100 | > 100 | > 100 | > 100
S=c1[nH]c2ccc(I)cc2c(=S)n1Cc1ccccc1 | 21.4 |  |  | 33.6 |  |  |  | 8.07 |  |  | > 100 µM |  | 13.4 |  | 14.7 | 27.6 | > 100 | 25.5 | 12.1
CC(=O)OC1COC(Nc2nc(N)n(C)c(=O)c2N=O)C(OC(C)=O)C1OC(C)=O (stereo not given) | > 10 |  |  | > 10 |  |  |  | > 10 |  |  | > 10 µM |  | > 10 |  | > 10 | > 10 | > 10 | > 10 | > 10
C=C1C(=O)OC2CC3(C)OC3CC/C(C)=C/C(OC(C)=O)C12 (stereo not given) | 14.2 |  |  | 5.9 |  |  |  | 34.7 |  |  | 37 µM |  | 26.3 |  | 4.89 | 35.3 | 26.8 | 30.1 | 14.3
Fc1cc(-c2cc(-c3ccc4c(c3)OCO4)n[nH]2)c(Cl)cc1Cl | 3.59 |  |  | 24.8 |  |  |  | 5.33 |  |  | 5.44 µM |  | 7.58 |  | 28.9 | 7.5 | 5.7 | 12.4 | > 46.4
O=C1CC2CCC(C1)S2=O (stereo not given) | > 100 |  |  | > 100 |  |  |  | > 100 |  |  | > 100 µM |  | > 100 |  | > 100 | > 100 | > 100 | > 100 | > 100
